For assay [1], the target named is T1, GPR183 (Homo sapiens, UniProt P32249). Type of assay: cell-based. Details: hemagglutinin signal peptide (upstream of the FLAG tag) (N); expressed in transfected cells; host or cells: CHO-K1 (ATCC CCL-61), transient lipofection, modified pcDNA3 vector. The following applies: for agonist activity in calcium mobilization screen: 10 μM compound. Background: A change in cytosolic calcium serves as a functional read-out for many receptors and channels.

Assay [2] deals with T1, GPR183. The assay can be described thus: cell-based.
Assay [3] addresses T1, GPR183. As to the kind of experiment: BRET cAMP (CAMYEL biosensor) assay, antagonist mode (antagonist added 10 min prior to agonist). Type of assay: cell-based. Details: hemagglutinin signal peptide (upstream of the FLAG tag) (N); expressed in transfected cells; host or cells: CHO-K1 (ATCC CCL-61), transient lipofection, modified pcDNA3 vector. A general note: BRET reads energy transfer from a luciferase to a nearby fluorophore.

Assay [4] addresses T1, GPR183. Particulars: dose-response, BRET.
Setting [5] is: calcium assay dose-response, mean of 3 experiments in duplicates, read-out: EC50 (potency).
Setting [6] is: EC50 (potency), Gαi coupling, BRET, three experiments.

What is called EC50 is the midpoint of the concentration-response curve. In general, inhibition refers to how much of the control response was suppressed.

“Also recorded” adds a separate entry of the source. Like-named read-outs stand apart in the source and are kept apart here.

T1 sequence (P32249 whole entry): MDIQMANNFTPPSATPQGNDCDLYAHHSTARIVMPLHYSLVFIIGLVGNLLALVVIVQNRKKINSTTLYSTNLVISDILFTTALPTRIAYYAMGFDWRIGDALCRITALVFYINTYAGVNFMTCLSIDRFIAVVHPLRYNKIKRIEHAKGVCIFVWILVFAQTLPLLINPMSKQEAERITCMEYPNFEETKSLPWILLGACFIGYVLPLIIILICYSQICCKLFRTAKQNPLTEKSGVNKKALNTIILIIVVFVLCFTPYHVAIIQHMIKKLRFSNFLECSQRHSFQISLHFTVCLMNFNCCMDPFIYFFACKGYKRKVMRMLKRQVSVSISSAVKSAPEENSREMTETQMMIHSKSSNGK

Consider `C[C@H](CCCC(C)(C)O)[C@H]1CC[C@H]2[C@@H]3[C@H](O)C=C4C[C@@H](O)CC[C@]4(C)[C@H]3CC[C@]12C` [Compound 1, 7α,25‐dihydroxycholesterol, reference compound], for which the EC50 amounted to 17 nM in assay [1] and 19 nM in assay [2].
As to `Cc1nn(C)c(C)c1/C=C/C(=O)N1CCN(C(=O)C2COc3ccccc3O2)CC1` (centres unmarked) [Compound 9], in assay [1] (setting [5]), the EC50 came out at 634 nM.
Turning to `O=C(/C=C/c1cccs1)N1CCN(C(=O)c2cccc3ccccc23)CC1` [Compound 10], in assay [1] (setting [5]), the EC50 was found to be 86 nM.
As for `O=C(/C=C/c1ccccc1Br)N1CCN(C(=O)Cc2ccc(F)cc2)CC1` [Compound 12], the EC50 in assay [1] (setting [5]) came to 107 nM.
Turning to `O=C(CCC1CCCC1)N1CCN(C(=O)c2cc(=O)c3ccccc3o2)CC1` [Compound 13], in assay [1] (setting [5]), the EC50 stood at 165 nM.
Consider `O=C(COc1cccc2ccccc12)N1CCN(C(=O)c2ccccc2)CC1` [Compound 15], for which the EC50 in assay [1] (setting [5]) is 209 nM; in assay [2] (setting [6]) it was 660 nM.
In the case of `COc1cc(C(=O)N2CCN(C(=O)COc3ccc(Cl)cc3C)CC2)ccc1C` [Compound 16], the EC50 in assay [1] (setting [5]) is 179 nM; in assay [2] (setting [6]), 51 nM; in assay [2] (pEC50±SE, Gαi coupling, BRET), 50.1 nM.
Take `O=C(COc1ccc(F)cc1Br)N1CCN(C(=O)C2COc3ccccc3O2)CC1` (centres unmarked) [Compound 17]: in assay [1] (setting [5]), the EC50 worked out at 278 nM.
On to `O=C(COc1ccc(F)cc1Cl)N1CCN(C(=O)c2cccs2)CC1` [Compound 18], for which, in assay [1], the “agonist activity in calcium mobilization screen” value was “active”. In addition, in assay [1] (setting [5]), the EC50 came to 740 nM.
For `O=C(COc1ccc2c(c1)CCC2)N1CCN(C(=O)c2cccs2)CC1` [Compound 69], the “agonist activity in calcium mobilization screen” value in assay [1] was “inactive”.
For the compound `O=C(/C=C/c1ccccc1)N1CCN(C(=O)c2ccccc2)CC1` [Compound 88], the inhibition at 10 µM in assay [3] (10 μM (highest concentration tested), 10 nM of agonist 1 after preincubation, read-out: inhibition of G protein activity induced by 1) came out at 79%.
On to `O=C(COc1ccccc1)N1CCN(C(=O)c2ccccc2)CC1` [Compound 90], for which, in assay [3] (10 nM of agonist 1 after preincubation with compound), the “antagonist properties (inhibition of G protein activity induced by 1)” value is “did not inhibit”. The “agonist activity (Gαi coupling)” value in assay [4] is “inactive”.
With `Cc1cc(Cl)ccc1OCC(=O)N1CCN(C(=O)c2ccccc2)CC1` [Compound 91], in assay [4], the “agonist activity (Gαi coupling)” value is on record as “partial agonist properties; also recorded: active”. In addition, the EC50 in assay [2] (setting [6]) is 64 nM; in assay [2] (pEC50±SE, Gαi coupling, BRET) it was 63.1 nM.
With `COc1cc(C(=O)N2CCN(C(=O)COc3cccc4ccccc34)CC2)ccc1C` [Compound 92], in assay [4], the “agonist activity (Gαi coupling)” value was “partial agonist properties”. Besides, in assay [2] (setting [6]), the EC50 is 757 nM.

(Values after publication PMC8518411, “Discovery of GPR183 Agonists Based on an Antagonist Scaffold” (Chemmedchem, 2021).)
